In experiment [1] the target is mGluR2 (Homo sapiens, UniProt Q14416). Conditions: read-out: IC50 against mGluR2; cited from earlier work.
Experiment [2] deals with mGluR3 (Homo sapiens, UniProt Q14832). The note with it: read-out: IC50 against mGluR3; cited from earlier work.
Experiment [3] has as its system Group I or Group III receptors. Conditions: at sub-mM concentrations; cited from earlier work.
In experiment [4] the test system is human neural stem cells (hNSCs). Nature of the experiment: Neuronal differentiation of human neural stem cells (TUJ-1 staining). The experiment is classed as cell-based. The note with it: for effect on neuronal differentiation, agent alone (in words): dose response of agent alone; for maximal percent neuronal differentiation in the presence of 1.0 μM NBQX: with 1.0 μM NBQX.

In experiment [5] the test system is KA, AMPA, and NMDA iGlu receptors. Conditions: cited from earlier work.
Experiment [6] has as its target human mGlu2 receptors (Homo sapiens, UniProt Q14416). The note with it: in vitro; low nanomolar range; read-out: EC50 against human mGlu2 receptors; cited from earlier work.
Experiment [7] deals with human mGlu3 receptors (Homo sapiens, UniProt Q14832). Conditions: in vitro; low nanomolar range; read-out: EC50 against human mGlu3 receptors; cited from earlier work.
Experiment [8] relates to male F344 rats. Description: Novel object recognition in rat. Type of experiment: in vivo. The note with it: 0.5 mg/kg/day i.p. once daily for 7 days, p<0.05. The method, then:
SGS-111 (0.5 mg/kg/day, i.p.) was administered to male F344 rats (n=12) once daily for 7 days. Animals were tested after 7 days of drug administration.
Shown in FIG. 9 is the mean number of visits to the novel object for vehicle and SGS-111 treated rats (±SEM). The y-axis represents mean visits. The x-axis indicates treatment. […] This difference is indicative of cognitive enhancement, an in vivo behavioral consequence of enhanced neurogenesis by SGS-111.

Where [9] appears, read: hNSCs, % of neuronal positive control.
Setting [10] is: hNSCs, agent run independently, % of neuronal positive control, basal media subtracted, read-out: EC50 for neuronal differentiation, agent alone.
Where [11] appears, read: hNSCs, test agent dose response with constant 0.316 μM AMPA, read-out: EC50 for neuronal differentiation in combination with 0.316 μM AMPA.
The mark [12] stands for this setting: Homo sapiens, Neural stem cell, hNSCs, agent run independently, % of neuronal positive control, basal media subtracted, read-out: EC50 for neuronal differentiation, agent alone.

Several values for one entry are separate records, joined by “and”; a condition that tells them apart may be missing. Equal entries are not always repeated. Entries after “also recorded” stand apart in the source; their conditions may differ. Structures can show the parent of a compound that is named as a salt. Where two headings read alike, the source gives them in different places. Peptide text beside a SMILES is read from it. * marks the point of attachment. PhAc = O=C(Cc1ccccc1)*

As a reminder, the IC50 is the midpoint of a concentration-inhibition curve. The term EC50 denotes the concentration that produces a half-maximal response.

Chain of human mGlu2 receptors (Q14416 19-872): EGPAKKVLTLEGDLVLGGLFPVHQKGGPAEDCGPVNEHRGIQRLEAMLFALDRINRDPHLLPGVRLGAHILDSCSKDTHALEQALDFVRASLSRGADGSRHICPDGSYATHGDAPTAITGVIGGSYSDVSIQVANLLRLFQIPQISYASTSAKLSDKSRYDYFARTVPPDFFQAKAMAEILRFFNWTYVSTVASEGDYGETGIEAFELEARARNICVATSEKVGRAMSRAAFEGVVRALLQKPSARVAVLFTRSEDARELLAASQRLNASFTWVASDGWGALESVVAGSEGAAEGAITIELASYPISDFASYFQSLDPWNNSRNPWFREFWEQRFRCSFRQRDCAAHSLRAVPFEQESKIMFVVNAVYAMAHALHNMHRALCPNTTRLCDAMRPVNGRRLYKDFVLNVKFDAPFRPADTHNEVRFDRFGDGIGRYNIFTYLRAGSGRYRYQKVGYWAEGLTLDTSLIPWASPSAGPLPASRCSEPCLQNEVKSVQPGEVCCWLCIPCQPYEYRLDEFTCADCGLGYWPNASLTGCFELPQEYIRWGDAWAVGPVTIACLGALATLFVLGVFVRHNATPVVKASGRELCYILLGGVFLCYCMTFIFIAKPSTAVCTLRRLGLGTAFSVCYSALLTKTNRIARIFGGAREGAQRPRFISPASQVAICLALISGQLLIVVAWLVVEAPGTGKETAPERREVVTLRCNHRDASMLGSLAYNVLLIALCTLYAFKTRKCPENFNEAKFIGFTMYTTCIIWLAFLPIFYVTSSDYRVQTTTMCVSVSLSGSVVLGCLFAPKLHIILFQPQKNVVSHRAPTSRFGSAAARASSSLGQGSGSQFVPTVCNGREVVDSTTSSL
Chain of mGluR2 (Q14416 19-872): as above
Chain of human mGlu3 receptors (Q14832 23-879): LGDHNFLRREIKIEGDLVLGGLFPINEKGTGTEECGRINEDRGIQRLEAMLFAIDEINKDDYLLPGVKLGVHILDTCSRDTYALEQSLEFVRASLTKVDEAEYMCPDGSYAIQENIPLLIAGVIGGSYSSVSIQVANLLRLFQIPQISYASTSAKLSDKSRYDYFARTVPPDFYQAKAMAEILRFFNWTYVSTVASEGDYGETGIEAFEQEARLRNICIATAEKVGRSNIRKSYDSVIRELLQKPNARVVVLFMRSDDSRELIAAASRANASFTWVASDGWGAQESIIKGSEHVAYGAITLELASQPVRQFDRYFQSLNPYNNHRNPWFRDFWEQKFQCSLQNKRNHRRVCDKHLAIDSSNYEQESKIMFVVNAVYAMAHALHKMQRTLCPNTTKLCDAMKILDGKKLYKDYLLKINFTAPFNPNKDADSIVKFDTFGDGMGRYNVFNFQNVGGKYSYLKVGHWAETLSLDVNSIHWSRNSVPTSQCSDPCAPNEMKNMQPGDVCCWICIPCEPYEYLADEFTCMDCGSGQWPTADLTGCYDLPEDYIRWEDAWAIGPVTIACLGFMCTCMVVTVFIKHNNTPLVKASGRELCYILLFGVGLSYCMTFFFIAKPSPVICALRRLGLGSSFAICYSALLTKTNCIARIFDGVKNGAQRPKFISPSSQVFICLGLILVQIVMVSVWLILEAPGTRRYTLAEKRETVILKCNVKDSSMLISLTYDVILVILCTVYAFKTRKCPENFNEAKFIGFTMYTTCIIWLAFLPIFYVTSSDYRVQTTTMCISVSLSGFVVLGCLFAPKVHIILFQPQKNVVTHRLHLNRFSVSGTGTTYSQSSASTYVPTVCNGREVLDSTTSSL
Chain of mGluR3 (Q14832 23-879): as above

For `NC1(C(=O)O)CCc2cc(P(=O)(O)O)ccc21` (racemic) [APICA, (RS)-1-amino-5-phosphonoindan-1-carboxylic acid], the IC50 in experiment [1] and in experiment [2] was around 30 µM in each case. Moreover, the “activity against Group I or Group III receptors (in words)” value in experiment [3] is “no appreciable activity”.
With `Cc1onc(O)c1CC(N)C(=O)O` (stereo not drawn) [AMPA, alpha-amino-3-hydroxy-5-methyl-4-isoxazolepropionic acid], in experiment [4] (Homo sapiens, Neural stem cell, read-out: EC50 for neuronal differentiation in the presence of 1.0 μM NBQX, hNSCs, with 1.0 μM AMPA antagonist NBQX), the EC50 is above 32 µM. The Emax in experiment [4] (Homo sapiens, Neural stem cell, read-out: maximum percent neuronal differentiation (maximum efficacy), agent alone) stood at 50%. Also, the “effect of AMPA at 0.316 μM alone on neuronal differentiation (in words)” value in experiment [4] (hNSCs, AMPA 0.316 μM) is “failed to stimulate neuronal differentiation; also recorded: no effects on neuronal differentiation”. For the same molecule, in experiment [4] (hNSCs), the “effect on neuronal differentiation, agent alone (in words)” value is recorded as “promoted neuronal differentiation”. Moreover, the “maximal percent neuronal differentiation in the presence of 1.0 μM NBQX” value in experiment [4] (setting [9]) was found to be 7%.
Turning to `CC(=O)N1CCN(NC(=O)c2ccc(F)cc2)CC1` [FK-960], the EC50 in experiment [4] (setting [10]) stood at 7 µM. Besides, the “effect on neuronal differentiation, agent alone (in words)” value in experiment [4] (hNSCs) is reported as “promoted neuronal differentiation”.
Consider `N[C@](CC1c2ccccc2Oc2ccccc21)(C(=O)O)[C@H]1C[C@@H]1C(=O)O` [LY341495, (2S)-2-amino-2-(1S,2S-2-carboxycycloprop-1-yl)-3-(xanth-9-yl) propanoic acid], for which the “activity against KA, AMPA, and NMDA iGlu receptors (in words)” value in experiment [5] is “substantially inactive”.
Take `N[C@@]1(C(=O)O)CO[C@H]2[C@H](C(=O)O)[C@H]21` [LY379268, (−)-2-oxa-4-aminobicyclohexane-4,6-dicarboxylic acid]: the EC50 in experiment [6] and in experiment [7] was below 0.01 µM each time.
With `NC(=O)COc1c(F)cc(SCCNS(=O)(=O)c2ccccc2)cc1F` [PEPA], in experiment [4] (hNSCs, constant 0.316 μM AMPA), the “effect on neuronal differentiation in the presence of 0.316 μM AMPA (in words)” value is reported as “stimulation of neuronal differentiation that was dose-dependent upon PEPA”. In addition, in experiment [4] (hNSCs), the “effect on neuronal differentiation, agent alone (in words)” value is given as “No effect on neuronal differentiation; also recorded: did not significantly enhance neuronal differentiation”. Moreover, in experiment [4] (setting [11]), the concentration giving a half-maximal response (EC50) was 0.69 µM.
On to `NC(=O)CN1CCCC1=O` [Piracetam], for which the EC50 in experiment [4] (Homo sapiens, Neural stem cell, hNSCs, with 1.0 μM AMPA antagonist NBQX, read-out: EC50 for neuronal differentiation in the presence of 1.0 μM NBQX) was above 32 µM. Also, the Emax in experiment [4] (Homo sapiens, Neural stem cell, hNSCs, % of neuronal positive control, read-out: maximum percent neuronal differentiation (maximum efficacy), agent alone) is 60%. The “effect on neuronal differentiation, agent alone (in words)” value in experiment [4] (hNSCs) is reported as “promoted neuronal differentiation”. Also, in experiment [4] (setting [9]), the “maximal percent neuronal differentiation in the presence of 1.0 μM NBQX” value is 38%.
Consider `CCOC(=O)CNC(=O)[C@@H]1CCCN1C(=O)Cc1ccccc1` [SGS-111] (PhAc-Pro-Gly-OEt), for which, in experiment [4] (setting [9]), the “maximum percent neuronal differentiation (maximum efficacy), agent alone” value is around 40%. The “maximum percent neuronal differentiation (maximum efficacy) in combination with 0.316 μM AMPA” value in experiment [4] (hNSCs, % of neuronal positive control, constant 0.316 μM AMPA) was “approximately 60%”. Besides, the EC50 was 7.2 µM in experiment [4] (setting [10]) and 4.2 µM in experiment [4] (setting [11]). For the same molecule, the “effect on neuronal differentiation in the presence of 0.316 μM AMPA (in words)” value in experiment [4] (hNSCs, constant 0.316 μM AMPA) was “a greater number of neurons at the highest concentration tested”. The “number of visits to / preference for the novel object versus familiar object” value in experiment [8] was “statistically significant increase”.
`CC(=O)NCCCS(=O)(=O)O` [acamprosate]: the EC50 was found to be 16.4 µM in experiment [4] (setting [12]) and 9.68 µM in experiment [4] (setting [10]).
As to `CCCCN(CC)c1nc(C)nc2c1c(C)c(C)n2-c1c(C)cc(C)cc1C` [antalarmin], the EC50 in experiment [4] (setting [12]) came to 4.68 µM.
Still for that read-out and setting: the same measure for `O=C1CC2(CCCC2)CC(=O)N1CCCCN1CCN(c2ncccn2)CC1` [buspirone]: 7.43 µM.
The same measure, in the same setting: the same measure for `O=C1CC[C@H](C(=O)N2CCCCC2)N1` [fasoracetam]: 3.13 µM; for `COc1ccc2[nH]cc(CCNC(C)=O)c2c1` [melatonin]: 320 µM.
As to `COC(=O)C(c1ccccc1)C1CCCCN1` (stereo not shown) [methylphenidate HCl, methylphenidate hydrochloride], in experiment [4] (Homo sapiens, Neural stem cell, read-out: EC50 for neuronal differentiation, agent alone, hNSCs, agent run independently, % of neuronal positive control, basal media subtracted), the EC50 is 1.29 µM.
`NCC1CC(=O)N(Cc2ccccc2)C1` (stereo not shown) [nebracetam]: in experiment [4] (Homo sapiens, Neural stem cell, hNSCs, % of neuronal positive control, constant 0.316 μM AMPA, read-out: maximum percent neuronal differentiation (maximum efficacy) in combination with 0.316 μM AMPA), the Emax was determined as 63%. In addition, the “effect on neuronal differentiation in the presence of 0.316 μM AMPA (in words)” value in experiment [4] (hNSCs, constant 0.316 μM AMPA) is given as “promoted dose dependent neuronal differentiation”. The “effect on neuronal differentiation, agent alone (in words)” value in experiment [4] (hNSCs) is given as “failed to stimulate neuronal differentiation; also recorded: no effect on neuronal differentiation”. In addition, in experiment [4] (setting [11]), the EC50 was 0.28 µM and 0.97 µM.
With `NC(=O)c1ncn([C@@H]2O[C@H](CO)[C@@H](O)[C@H]2O)n1` [ribavirin], the EC50 in experiment [4] (setting [12]) amounted to 5.14 µM.
Same read-out and setting: the same measure for `CCCc1nc2c(C)cc(-c3nc4ccccc4n3C)cc2n1Cc1ccc(-c2ccccc2C(=O)O)cc1` [telmisartan]: 2.75 µM; for `COC(=O)[C@@H]1[C@H]2C[C@H]3c4[nH]c5ccccc5c4CCN3C[C@@H]2CC[C@@H]1O` [yohimbine]: 0.62 µM.

Values taken from patent US20100216734A1, “MODULATION OF NEUROGENESIS BY NOOTROPIC AGENTS” (BrainCells, Inc., priority 2006, published 2010).
